Source: PubChem BioAssay (NCI)
Where “and” joins values, the source holds several entries; their conditions need not be identical. Equal values may be shown once.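 Method: 48-hour compound exposure of cells in 96-well plates, five concentrations, linear interpolation of endpoints. The concentration for 50% growth inhibition is given as GI50. The concentration for full growth arrest is given as TGI.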

Tests used:
Assay in all cases: NCI anticancer screen, dose series, 48 h
SNB-75 CNS = test system: SNB-75 CNS
MDA-MB-231 breast = test system: MDA-MB-231 breast
SF-295 CNS = test system: SF-295 CNS
TK-10 renal = test system: TK-10 renal
NCI-H522 lung = test system: NCI-H522 lung
U251 CNS = test system: U251 CNS
OVCAR-3 ovarian = test system: OVCAR-3 ovarian
OVCAR-5 ovarian = test system: OVCAR-5 ovarian
T-47D breast = test system: T-47D breast
HCC-2998 colon = test system: HCC-2998 colon

Compound	TGI (SNB-75 CNS)	TGI (MDA-MB-231 breast) [µM]	TGI (SF-295 CNS)	TGI (TK-10 renal)	TGI (NCI-H522 lung)	TGI (U251 CNS)	TGI (OVCAR-3 ovarian)	TGI (OVCAR-5 ovarian)	GI50 (SNB-75 CNS) [µM]	GI50 (MDA-MB-231 breast) [µM]	GI50 (SF-295 CNS) [µM]	GI50 (TK-10 renal) [µM]	GI50 (NCI-H522 lung) [µM]	GI50 (U251 CNS) [µM]	GI50 (OVCAR-3 ovarian) [µM]	GI50 (OVCAR-5 ovarian) [µM]	GI50 (T-47D breast) [µM]	TGI (T-47D breast) [µM]	TGI (HCC-2998 colon)	GI50 (HCC-2998 colon) [µM]
O=C(O)c1cc2ccccc2c(N=Nc2c([N+](=O)[O-])cc([N+](=O)[O-])cc2S(=O)(=O)O)c1O	> 100 µM	> 100	> 100 µM	> 100 µM	> 100 µM	> 100 µM	> 100 µM	> 100 µM												
COc1ccc2cc(C(=O)/C=C/c3cccc(Cl)c3Cl)ccc2c1	> 90.8 µM	39.6	> 100 µM	> 86.3 µM	> 24.6 µM	65.3 µM	30.1 µM	95.2 µM	28.4	12.2	5.94	18.6	0.614	6.19	7.87	36.9	> 59	> 100		
N/N=C1\c2ccccc2C2/C(=N\N)c3ccccc3C12 (centres undefined)	> 100 µM		> 100 µM	> 100 µM	> 100 µM	> 100 µM	> 100 µM	> 100 µM											> 100 µM	
CC1C=C(OC(=O)c2ccccc2)C(=O)C(n2cc(F)c(=O)n(C(=O)c3ccccc3)c2=O)O1 (centres undefined)	91.9 µM		> 100 µM	> 100 µM		> 100 µM	56.4 µM													
CCOc1ccccc1NC(=O)CCc1nnc2s/c(=C\CCc3ccccc3)c(=O)n12	> 100 µM		> 100 µM	> 100 µM	> 100 µM	> 100 µM	> 100 µM	> 100 µM											> 100 µM	
CC1CCCC(C(O)CC2CC(=O)N(c3ccccc3)C(=O)C2)C1=O (centres undefined)	> 100 µM		> 100 µM	> 100 µM	> 100 µM	> 100 µM	> 100 µM	> 100 µM											> 100 µM	
COc1cc2c3c(n(CCCN4CCN(C)CC4)c(=O)c2cc1OC)-c1cc2c(cc1C3=O)OCO2	36 µM	32.4	31.7 µM	31.9 µM	45.4 µM	27.5 µM	30.1 µM	31.4 µM	16	15.3	10.7	17.1	15.4	11.4	15.3	17.6				
CCC(C(=O)[O-])C(=O)[O-].CCC(C(=O)[O-])C(=O)[O-].N.N.NCCCCCN.[Pt+4].[Pt+4]	> 100 µM		> 100 µM	> 100 µM	> 100 µM	> 100 µM	> 100 µM	> 100 µM	> 100		> 100	> 100	> 100	> 100	> 100	> 100			> 100 µM	> 100
FC(F)(F)c1ccc(C=NC23CC4CC(CC(C4)C2)C3)cc1	> 100 µM		> 100 µM	> 100 µM	> 100 µM	> 100 µM	> 100 µM	> 100 µM											> 100 µM	
C=CCNC1=C(C(=O)OCC)C(=O)CO1	> 100 µM		> 100 µM	> 100 µM	> 100 µM	> 100 µM	> 100 µM	> 100 µM											> 100 µM	
COC(=O)c1c2c(c(C)[n+]([O-])c1C)C(=O)C=C(NCc1cccc(OC)c1)C2=O	3.01 µM	4.83	2.1 µM		2.24 µM	2.08 µM	0.743 µM	2.77 µM	1.64	0.358	0.772		0.429	0.646	0.257	1.31	0.286	1.62		
O=C(CC/C(C/C(=N/O)c1ccc(F)cc1)=N/O)N(Cc1ccccc1)Cc1ccccc1	> 100 µM		> 100 µM	> 100 µM	> 100 µM	> 100 µM	> 100 µM	> 100 µM											> 100 µM	
Cc1ccc(S(=O)(=O)N2CCC3(C(/C=C/c4ccccc4)=Nc4ccccc43)C2c2ccccc2)cc1 (centres undefined)	> 100 µM		> 100 µM	> 100 µM	> 100 µM	> 100 µM	> 100 µM	> 100 µM											> 100 µM	
COc1cc(/C=C/C(=O)c2cc(F)c(Cl)cc2Cl)cc(OC)c1OC	> 100 µM	> 100	> 100 µM	> 100 µM		> 100 µM	40 µM	> 100 µM	56.3	15.7	44.4	31		29.3	14.5	25.2	41.2	> 100	> 100 µM	73
COc1cccc(/C=C/C(=O)c2ccc(Cl)cc2Cl)c1OC	33.8 µM	27.8	32.5 µM	27 µM		18.7 µM	19.7 µM	30.9 µM	18	12.3	15	13.5		6.19	7.38	17.1	8.59	25.5	27.7 µM	14.5
C=C(CN(CC(=C)C(=O)c1ccccc1)C(C)(C)C)C(=O)c1ccccc1	17.6 µM		> 54.2 µM	27 µM	29.4 µM	39.4 µM	37.5 µM	34.3 µM											33.3 µM	
NC1=NC(c2ccccc2)N=C(Nc2ccccc2)N1 (centres undefined)	> 100 µM	> 100	> 100 µM	> 100 µM		> 100 µM	> 100 µM	> 100 µM	34.8	> 100	> 100	> 100		42.1	32	> 100	> 100	> 100		
N#C/C(=C\c1ccc(Br)cc1)n1nnc2cccc(F)c21	2.87 µM	3.46	3.88 µM	3.55 µM		3.06 µM	2.15 µM	3.48 µM	1.41	1.63	1.92	1.91		1.55	0.861	1.77	1.08	4.44	3.13 µM	1.56
Cn1cc2c(n1)c(N/N=C/c1ccccc1)nn1nnnc21	> 100 µM		> 100 µM	> 100 µM		> 100 µM	> 100 µM												> 100 µM	

Compound	TGI (SNB-75 CNS)	TGI (MDA-MB-231 breast) [µM]	TGI (SF-295 CNS)	TGI (TK-10 renal)	TGI (NCI-H522 lung)	TGI (U251 CNS)	TGI (OVCAR-3 ovarian)	TGI (OVCAR-5 ovarian)	GI50 (SNB-75 CNS) [µM]	GI50 (MDA-MB-231 breast) [µM]	GI50 (SF-295 CNS) [µM]	GI50 (TK-10 renal) [µM]	GI50 (NCI-H522 lung) [µM]	GI50 (U251 CNS) [µM]	GI50 (OVCAR-3 ovarian) [µM]	GI50 (OVCAR-5 ovarian) [µM]	GI50 (T-47D breast) [µM]	TGI (T-47D breast) [µM]	TGI (HCC-2998 colon)	GI50 (HCC-2998 colon) [µM]
CC(=O)OCC1OC(OC2CC3C(C)(C)C(OC(C)=O)CC[C@]3(C)C3CCC45CC4(CC[C@H]5C(C)CC(O)C4OC4(C)C)[C@]23C)C(O)C(O)C1O (some centres undefined)	8.23 µM and 12.4 µM		5.5 µM and 11 µM	9.79 µM and 12.7 µM	5.33 µM and 3.91 µM	7.73 µM and 11.8 µM	8.76 µM and 7.08 µM	2.52 µM and 4.46 µM	3.7		3.34		1.91	3.13		2.02			2.71 µM and 4.26 µM	2.68
Cc1ccc(N=C2CSc3nnc(-c4csc5c4CCCC5)n3N2)cc1	17.2 µM	> 50	14 µM	> 50 µM	0.432 µM	> 50 µM	7.75 µM	> 50 µM	0.13	0.369	0.148	> 50	0.114	0.2	0.162	0.932			> 50 µM	1.31
CN(C)c1ccc(/C=C2\CNC/C(=C\c3ccc(N(C)C)cc3)C2=O)cc1	27.2 µM		> 100 µM	> 100 µM		28.7 µM	> 100 µM	> 100 µM											> 100 µM	
NC(=O)c1csc(C2C=CC(CO)O2)n1 (centres undefined)			> 10 µM	> 100 µM	> 100 µM	> 100 µM	> 10 µM	> 100 µM											> 100 µM	
C/C(=N\NC(=O)CC(=O)Nc1ccc(Cl)cc1)c1cc2ccccc2oc1=O	> 100 µM		> 100 µM	> 100 µM	> 100 µM	> 100 µM	> 100 µM													
CCC(=O)OC1CCn2c1nc1c2C(=O)C(C)=C(N2CC2)C1=O (centres undefined)	0.0957 µM and 0.0544 µM	3.32	1.08 µM and 0.151 µM		0.0404 µM and 0.0899 µM	0.484 µM and 0.576 µM	0.0975 µM and 0.137 µM	0.589 µM and 0.229 µM	0.0223		0.0315	0.496	0.0159	0.0733	0.0296	0.0743			0.214 µM and 0.18 µM	
COc1cc2c3c(n(CCN)c(=O)c2cc1OC)-c1cc2c(cc1C3=O)OCO2	2.43 µM	0.84	2.09 µM	3.63 µM	6.57 µM			3.74 µM	0.143	0.255	< 0.0352	1.79	0.771	0.367		1.95	0.143	1.36		
O=C([O-])c1ccc2c(c1)-c1nc-2nc2[n-]c(nc3nc(nc4[n-]c(n1)c1ccc(C(=O)[O-])cc41)-c1cc(C(=O)[O-])ccc1-3)c1ccc(C(=O)[O-])cc21.[Fe+2]	> 50 µM		> 50 µM	> 50 µM	> 50 µM	> 50 µM	> 50 µM	> 50 µM	31.8		> 50	> 50	> 50	> 38.4	> 50	> 50			> 50 µM	> 50
Cc1c(O)c(=O)ccn1C1OC(CO)C(O)C1O (centres undefined)	> 100 µM		> 100 µM	> 100 µM	> 100 µM	> 100 µM	> 100 µM	> 100 µM												
NCCNCC(O)CO (centres undefined)	> 100 µM	> 100	> 100 µM	> 100 µM	> 100 µM	> 100 µM	> 100 µM	> 100 µM										> 100		
COC(=O)C1=C(C(=O)OC)C23C=CC=CC24C(C(=O)OC)=C(C(=O)OC)C4C1C3 (centres undefined)	9.08 µM		> 100 µM	> 100 µM	> 100 µM	> 100 µM	> 100 µM	> 100 µM											> 100 µM	
O=C1CC2CCCCC2=C1O (centres undefined)	> 100 µM		> 100 µM	> 100 µM	> 100 µM	> 100 µM	> 100 µM	> 100 µM											> 100 µM	
CCCCCCCCCCCCCC/C(C(=O)OC)=C(/O)C(=O)OCC	> 100 µM		40.9 µM	> 100 µM	> 100 µM	69.4 µM	> 100 µM	70.1 µM											37.3 µM	
COc1c2ccccc2c(O)c2c(=O)c(C(=O)O)cn(C)c12	> 100 µM	> 100	> 100 µM		> 100 µM	> 100 µM	> 100 µM	> 100 µM	> 100	> 100	28.8		> 100	> 100	> 100	> 100	> 100	> 100	> 100 µM	> 100
CCCCn1c2c(c3ccccc3c1=O)C(=O)c1ccccc1-2	> 100 µM	> 100	> 100 µM	> 100 µM	> 100 µM	> 100 µM	> 100 µM	> 100 µM										> 100		
CC1=C(C(=O)Nc2ccccc2C)C(c2ccc([N+](=O)[O-])cc2)C(C(=O)Nc2ccccc2C)=C(C)N1	86.5 µM		> 100 µM	> 100 µM	> 100 µM	> 100 µM	> 100 µM	> 100 µM											> 100 µM	
C=C(CN1CCN(c2cccc(C(F)(F)F)c2)CC1)c1ccc(C(=O)Nc2ccccc2N)cc1		3.39	3.88 µM	5.31 µM	> 16.1 µM	5.84 µM	6.2 µM	26.4 µM		0.941	0.537	0.807	6.14	1.18	0.545	6.63	13.2	> 50		
O=c1cccc(C#Cc2ccccc2)o1	> 100 µM	25.8	13.8 µM	22.7 µM	> 40.4 µM	> 36.4 µM	11.1 µM	16.1 µM	42.3	6.05	5.03	6.06	4.06	9.2	2.42	6.35	8.67	46		
CCOP(=O)(CC(=O)C1=C(O)C(CCCNC(=O)OC(C)(C)C)N(Cc2ccc(OC)c(OC)c2)C1=O)OCC (centres undefined)	> 100 µM		> 100 µM	> 100 µM	> 100 µM	> 100 µM	> 100 µM	> 100 µM											> 100 µM	
